Assay results: paper PMC12175177 (Frontiers in Pharmacology, 2025)
Counter-ions that a name gives are not always drawn. Like-named read-outs stand apart in the source and are kept apart here.

How the values were obtained:
Format in all cases: cell-based
[1] = tested on: SARS-CoV-2 Delta variant (SEQ203); conditions: for % inhibition Vero E6 Delta MOI 0.0001 / % inhibition Vero E6 Delta MOI 0.01: at MNCC, 48 h; for % inhibition Vero E6 Delta MOI 0.0001: 1x; for % inhibition Vero E6 Delta MOI 0.01: mean 2x
[2] = tested on: SARS-CoV-2 A2.5 variant (M2169); conditions: at MNCC, […], 48 h, 1x
[3] = tested on: SARS-CoV-2 A2.5 variant (M2169); conditions: at MNCC; […]; 48 h; mean 2x
[4] = tested on: SARS-CoV-2 Delta variant (SEQ203); conditions: at MNCC, 48 h, 1x
SARS-CoV-2 A2.5 variant = assay: microbe, parasite or virus in culture; conditions: for IC50: Severe acute respiratory syndrome coronavirus 2, Vero C1008, 72 h; for IC90: Severe acute respiratory syndrome coronavirus 2, Vero C1008

| Compound | antiviral inhibition at MOI = 0.00001 [1] | % inhibition Vero E6 Delta MOI 0.0001 [1] | % inhibition Vero E6 Delta MOI 0.01 [1] | % inhibition Vero E6 A2.5 MOI 0.01 [2] | % inhibition Calu-3 A2.5 MOI 0.01 [3] | % inhibition Calu-3 Delta MOI 0.01 [4] | other results |
| --- | --- | --- | --- | --- | --- | --- | --- |
| CCN(CC)Cc1cc(Nc2ccnc3cc(Cl)ccc23)ccc1O [Amodiaquine (AQ), Amodiaquine] | ≥ 20% | 42% | 11% | showed activity | showed activity |  |  |
| CCO[C@H]1O[C@@H]2O[C@@]3(C)CC[C@H]4[C@H](C)CC[C@@H]([C@H]1C)[C@@]24OO3 [Arteether (AE), Arteether] | ≥ 20% | 23% | 8% | 10% | showed activity | 5% |  |
| C[C@H]1[C@@H](OCc2ccc(C(=O)O)cc2)O[C@@H]2O[C@@]3(C)CC[C@H]4[C@H](C)CC[C@@H]1[C@@]24OO3 [Artelinic Acid (AA), Artelinic Acid] |  | 0% | 5% | 0% | 14% | 7% |  |
| C[C@H]1[C@H](N2CCS(=O)(=O)CC2)O[C@@H]2O[C@@]3(C)CC[C@H]4[C@H](C)CC[C@@H]1[C@@]24OO3 [Artemisone (ASO), Artemisone] |  | 15% | 10% | showed activity |  | 16% |  |
| C[C@H]1[C@H](OC(=O)CCC(=O)O)O[C@@H]2O[C@@]3(C)CC[C@H]4[C@H](C)CC[C@@H]1[C@@]24OO3 [Artesunate injection (ASi), Artesunate] | ≥ 20% | 41% |  | 0% | 10% |  | IC50 (SARS-CoV-2 A2.5 variant; read-out: IC50%): 28.7 µM; IC50 (SARS-CoV-2 A2.5 variant; read-out: IC50% in µg/mL): 11 µg/mL; IC90 (SARS-CoV-2 A2.5 variant; read-out: IC90%): 258 µM; IC90 (SARS-CoV-2 A2.5 variant; read-out: IC90% in µg/mL): 99.3 µg/mL; less potent against the Delta compared to the A2.5 variant [1]: 20% |
| C[C@H]1[C@H](OC(=O)CCC(=O)O)O[C@@H]2O[C@@]3(C)CC[C@H]4[C@H](C)CC[C@@H]1[C@@]24OO3 [Artesunic acid (AS), Artesunic acid] |  | 37% | 18% | 45% |  | 42% | % inhibition Calu-3 Delta MOI 0.01 ([4]; listed as AS): effective |
| CC[C@H]1OC(=O)[C@H](C)[C@@H](O[C@H]2C[C@@](C)(OC)[C@@H](O)[C@H](C)O2)[C@H](C)[C@@H](O[C@@H]2O[C@H](C)C[C@H](N(C)C)[C@H]2O)[C@](C)(O)C[C@@H](C)CN(C)[C@H](C)[C@@H](O)[C@]1(C)O [Azithromycin dehydrate (AZH), Azithromycin dehydrate] | ≥ 20% | 25% | 8% | 0% | 19% | 2% |  |
| CN(C)C(=O)COC(=O)Cc1ccc(OC(=O)c2ccc(NC(=N)N)cc2)cc1 [Camostat mesylate (CAM), Camostat mesylate] |  | 0% | 7% | 2% | 16% | 4% |  |
| CCN(CCO)CCCC(C)Nc1ccnc2cc(Cl)ccc12 (stereo not drawn) [Hydroxychloroquine Minsa (HCQ-m), Hydroxychloroquine] |  | 43% | 18% | 0% |  |  |  |
| O=C(Nc1cccc(C2=NCCN2)c1)Nc1cccc(C2=NCCN2)c1 [Imidocarb (IMI), Imidocarb] |  | 0% | 11% |  | 14% | 16% |  |
| CCCCN(CCCC)CC(O)c1cc(Cl)cc2c1-c1ccc(Cl)cc1/C2=C/c1ccc(Cl)cc1 (stereo not drawn) [Lumefantrine (LUM), Lumefantrine] |  | 0% | 14% |  | 19% |  |  |
| OC(c1cc(C(F)(F)F)nc2c(C(F)(F)F)cccc12)C1CCCCN1 (stereo not drawn) [Mefloquine (MQ), Mefloquine] | ≥ 20% | 45% | 6% | 16% | 8% | 0% |  |
| CN(C)c1ccc2nc3ccc(=[N+](C)C)cc-3sc2c1 [Methylene Blue Injection (MBi), Methylene Blue] |  | 16% | 10% | 2% | 18% |  |  |
| COc1c(C)c2c(c(O)c1C/C=C(\C)CCC(=O)O)C(=O)OC2 [Mycophenolic acid (MYC), Mycophenolic acid] | ≥ 20% | 40% | 7% | 0% | 11% | 5% |  |
| CN1CCN(CCCN2c3ccccc3Sc3ccc(Cl)cc32)CC1 [Prochlorperazine (PCPZ), Prochlorperazine] |  | 6% | 6% | 0% | 16% | 0% |  |
| COc1ccc2nc3cc(Cl)ccc3c(Nc3cc(CN4CCCC4)c(O)c(CN4CCCC4)c3)c2n1 [Pyranoridine (PNO), Pyranoridine] | ≥ 20% | 43% | 6% | 0% | 1% | -1% |  |
| CCc1nc(N)nc(N)c1-c1ccc(Cl)cc1 [Pyrimethamina (PYR), Pyrimethamina] | ≥ 20% | 34% | 9% | 0% | 0% | 3% |  |
| C=C[C@H]1C[N@@]2CC[C@H]1C[C@H]2[C@H](O)c1ccnc2ccc(OC)cc12 [Quinine Sulfate (QN), Quinine Sulfate] |  | 0% | 9% | 18% | 0% |  |  |
| NC(=O)c1ncn([C@@H]2O[C@H](CO)[C@@H](O)[C@H]2O)n1 [Ribavirin (RIB), Ribavirin] | ≥ 20% | 44% | 8% | 9% | 11% | -6% |  |
| COc1cc(C)c2c(Oc3cccc(C(F)(F)F)c3)c(OC)cc(NC(C)CCCN)c2n1 (stereo not drawn) [TQ, tafenoquine] |  |  |  |  |  |  | viral inhibition, secondary screening, Delta [1]: at least 20% |
| Ferroquine [Ferroquine (FQ)] |  | 23% | 7% | 12% |  | 4% |  |
| Ivermectin [Ivermectin Farmacia (IVM-f)] | ≥ 20% | 44% | 5% |  | 16% | 5% |  |
| Ivermectin [Ivermectin Liquida (IVM-li)] |  | 0% | 15% | 52% |  | 45% | % inhibition Calu-3 Delta MOI 0.01 ([4]; listed as IVM-l): ≥ 20%; % inhibition Vero E6 A2.5 MOI 0.01 ([2]; listed as IVM-li): ≥ 20% |
